Experimental data taken from patent US8129361B2, “Amine compound and pharmaceutical use thereof” (Mitsubishi Tanabe Pharma Corporation, priority 2007, dated 2012).

Tests used:
Type in all cases: in vivo
[1] = tested on: peripheral blood lymphocyte number; assay: Peripheral blood lymphocyte number decreasing action in mouse; conditions: ip, male BALB/cAnNCrj mice, intraperitoneal, 24 hr after administration, read-out: ED50 (dose necessary for reducing the lymphocyte count of the vehicle group (100%) by 50%)
[2] = tested on: heart rate in rat; assay: Action on heart rate in rat (telemetry, oral administration); conditions: male Crl:CD(SD) rats, measured to 24 hr after administration
Protocol: Action on Heart Rate in Rat
Male Crl:CD(SD) rats were anesthetized by intraperitoneal administration of Nembutal (manufactured by Dainippon Sumitomo Pharma Co., Ltd.), and a pressure sensor connected to a telemetry transmitter (TL11M2-C50-PTX, manufactured by Data Sciences International) was inserted into the abdominal aorta and a transmitter was subcutaneously placed in the abdomen. The blood pressure and heart rate data were recorded by an analysis software (Dataquest A.R.T., manufactured by Data Sciences International) via a receiver (RPC-1, manufactured by Data Sciences International). After confirmation of recovery of circadian rhythm of the heart rate, the rats were subjected to the experiment. The compound of the present invention was suspended in 0.5% hydroxypropylmethylcellulose (manufactured by Shin-Etsu Chemical Co., Ltd.) and orally administered. The heart rate was measured from 72 hr before the administration to 24 hr after the administration.

[3] = tested on: peripheral blood lymphocyte number; assay: Peripheral blood lymphocyte number decreasing action in rat; conditions: male F344 rats, oral, 24 hr after administration, read-out: ED50 (dose necessary for reducing the lymphocyte count of the vehicle group (100%) by 50%)
[4] = up to the dose of 30 mg/kg body weight

`Cl.NC(CO)(CO)CCc1ccc(OCCCc2ccc(C(F)(F)F)cc2)c(C(F)(F)F)c1` [Compound 11-4, 2-amino-2-(2-{3-trifluoromethyl-4-[3-(4-trifluoromethylphenyl)propoxy]phenyl}ethyl)propane-1,3-diol hydrochloride] was tested, and the ED50 [1] was 0.06 mg/kg, the “Effect on heart rate” value [2, 4] was “did not reduce the heart rate” and the ED50 [3] was 0.09 mg/kg.
For `Cl.NC(CO)(CO)CCc1ccc(OCCCc2ccc(OC(F)(F)F)cc2)c(C(F)(F)F)c1` [Compound 52-5, 2-amino-2-(2-{4-[3-(4-trifluoromethoxyphenyl)propoxy]-3-trifluoromethylphenyl}ethyl)propane-1,3-diol hydrochloride], the ED50 [1] was 0.08 mg/kg, the “Effect on heart rate” value [2, 4] was “did not reduce the heart rate” and the ED50 [3] was 0.05 mg/kg.
In the case of `Cc1cccc(CCCOc2ccc(CCC(N)(CO)CO)cc2C(F)(F)F)c1.Cl` [Compound 15-4, 2-amino-2-(2-{4-[3-(3-methylphenyl)propoxy]-3-trifluoromethylphenyl}ethyl)propane-1,3-diol hydrochloride], the ED50 [1] is reported as 0.03 mg/kg, the “Effect on heart rate” value [2, 4] is reported as “did not reduce the heart rate” and the ED50 [3] is reported as 0.05 mg/kg.
For `Cl.NC(CO)(CO)CCc1ccc(OCCCc2ccc(Cl)c(Cl)c2)c(C(F)(F)F)c1` [Compound 38-5, 2-amino-2-(2-{4-[3-(3,4-dichlorophenyl)propoxy]-3-trifluoromethylphenyl}ethyl)propane-1,3-diol hydrochloride], the ED50 [1] was 0.07 mg/kg, the “Effect on heart rate” value [2, 4] was “did not reduce the heart rate” and the ED50 [3] was 0.07 mg/kg.
`Cl.NC(CO)(CO)CCc1ccc(OCCCc2cccc(C(F)(F)F)c2)c(C(F)(F)F)c1` [Compound 12-4, 2-amino-2-(2-{3-trifluoromethyl-4-[3-(3-trifluoromethylphenyl)propoxy]phenyl}ethyl)propane-1,3-diol hydrochloride] was tested, and the ED50 [1] was 0.04 mg/kg, the “Effect on heart rate” value [2, 4] was “did not reduce the heart rate” and the ED50 [3] was 0.11 mg/kg.
For `C[C@](N)(CO)CCc1ccc(OCCCc2ccc(Cl)c(Cl)c2)c(C(F)(F)F)c1.Cl` [Compound 204-1, (R)-2-amino-4-{4-[3-(3,4-dichlorophenyl)propoxy]-3-trifluoromethylphenyl}-2-methylbutanol hydrochloride], the ED50 [1] was 0.005 mg/kg, the “Effect on heart rate” value ([2]; up to the dose of 10 mg/kg body weight) was “did not reduce the heart rate” and the ED50 [3] was 0.03 mg/kg.
